Numbered stars: 1 amine (or outer) side, 2 acyl side, 3 side chain; on linkers, the order of the positions; unused ones are H or OH. Square brackets hold non-standard residues; d marks the D form. Side chains are listed from the residue outwards. * marks the point of attachment. C16 diacid = O=C(O)CCCCCCCCCCCCCCC(=O)*; γGlu = O=C(O)[C@H](CCC(=O)[*:2])N[*:1]; AEEA = NCCOCCOCC(=O)O; Aib = CC(C)(N)C(=O)O

What all share (format): cell-based
Experiment [1] concerns the target T1, human GIP receptor (hGIPR) (Homo sapiens, UniProt P48546).
T1 construct: expressed in transfected cells
T1 sequence (P48546 22-466): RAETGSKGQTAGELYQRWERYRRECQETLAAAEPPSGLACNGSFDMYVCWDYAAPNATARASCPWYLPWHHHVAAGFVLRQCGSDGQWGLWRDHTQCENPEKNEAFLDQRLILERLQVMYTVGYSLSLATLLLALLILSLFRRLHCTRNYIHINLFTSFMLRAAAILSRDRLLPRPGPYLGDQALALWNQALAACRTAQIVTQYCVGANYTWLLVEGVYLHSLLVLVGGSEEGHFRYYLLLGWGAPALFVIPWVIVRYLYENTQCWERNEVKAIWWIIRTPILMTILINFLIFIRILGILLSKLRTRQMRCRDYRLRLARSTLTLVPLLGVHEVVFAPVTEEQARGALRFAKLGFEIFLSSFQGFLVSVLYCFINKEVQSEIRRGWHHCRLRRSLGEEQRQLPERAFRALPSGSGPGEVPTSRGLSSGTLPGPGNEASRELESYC
Kind of experiment: GIP receptor assay, method B (CRE-luciferase reporter, BHK cells, 384-well). To be noted: hGIPR Potency, 1% HSA, EC50, methods B, in the presence of 1% HSA.

The target of experiment [2] is T2, human amylin receptor (hAMYR3) (Homo sapiens, UniProt O60896+P30988).
T2 construct: host or cells: BHK cells (Hollex-1 line expressing hCTR(a) and CRE-Luc), further transfected with human RAMP3
The experiment can be described thus: Amylin receptor assay, method B (CRE-luciferase reporter, BHK cells). The conditions noted are these: hAMYR3 Potency, 1% HSA, EC50, methods B, in the presence of 1% HSA. An outline of the steps: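 BHK cells with CRE-luciferase, co-expressing hAMYR3 and transfected with human RAMP3, seeded overnight, then exposed 3 h at 37 °C to compound. Buffer: phenol red-free DMEM, 10 mM HEPES, 1% ovalbumin, with 0% or 1% (w/v) HSA. Luminescence read after 30 min with steadylite Plus.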

Experiment [3] concerns the target T3, human GLP-1 receptor (hGLP-1R) (Homo sapiens, UniProt P43220).
T3 construct: expressed in transfected cells
Kind of experiment: GLP-1 receptor assay, method B (CRE-luciferase reporter, BHK cells, 384-well). To be noted: hGLP-1R Potency, 1% HSA, EC50, methods B, in the presence of 1% HSA.

Experiment [4] addresses T3, human GLP-1 receptor (hGLP-1R). Kind of experiment: GLP-1 receptor assay, method A (CRE-luciferase reporter, BHK cells). To be noted: method A, absence of HSA; read-out: hGLP-1R Potency, no HSA, EC50. An outline of the steps: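 Albumin sensitivity is tested by running the assay both without HSA and with 1% (w/v) HSA. Frozen BHK cells carrying hGLP-1R and CRE-driven luciferase are incubated with compound for 3 hours at 37° C. Luminescence is then read with steadylite Plus.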

Experiment [5] addresses T1, human GIP receptor (hGIPR). The experiment can be described thus: GIP receptor assay, method A (CRE-luciferase reporter, BHK cells). The conditions noted are these: method A, absence of HSA; read-out: hGIPR Potency, no HSA, EC50. An outline of the steps: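 BHK cells co-expressing hGIPR and a CRE-luciferase reporter, plated 21-23 h before assay, stimulated 3 h at 37 °C with compounds (7-point 10-fold titration, duplicates) in ovalbumin-containing DMEM buffer with or without 1% HSA final. Luminescence read; EC50 (pM) from four-parameter logistic fit with shared Hill slope.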

In experiment [6] the target is T2, human amylin receptor (hAMYR3). Kind of experiment: Amylin receptor assay, method A (CRE-luciferase reporter, BHK cells). To be noted: method A, absence of HSA; read-out: hAMYR3 Potency, no HSA, EC50.

T2 sequence (P30988 25-474): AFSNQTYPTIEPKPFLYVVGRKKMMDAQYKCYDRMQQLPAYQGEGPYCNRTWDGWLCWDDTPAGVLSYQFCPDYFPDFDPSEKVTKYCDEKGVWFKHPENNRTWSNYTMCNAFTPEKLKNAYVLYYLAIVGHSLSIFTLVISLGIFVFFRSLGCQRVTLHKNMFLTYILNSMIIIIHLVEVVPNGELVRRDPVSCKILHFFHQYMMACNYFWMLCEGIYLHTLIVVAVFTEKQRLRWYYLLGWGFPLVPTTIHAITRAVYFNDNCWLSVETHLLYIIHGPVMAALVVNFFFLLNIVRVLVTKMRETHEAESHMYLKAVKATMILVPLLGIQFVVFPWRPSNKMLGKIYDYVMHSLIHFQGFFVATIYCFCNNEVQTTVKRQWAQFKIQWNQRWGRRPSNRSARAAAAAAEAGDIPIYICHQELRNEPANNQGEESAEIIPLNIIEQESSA
T2 sequence (O60896 24-148): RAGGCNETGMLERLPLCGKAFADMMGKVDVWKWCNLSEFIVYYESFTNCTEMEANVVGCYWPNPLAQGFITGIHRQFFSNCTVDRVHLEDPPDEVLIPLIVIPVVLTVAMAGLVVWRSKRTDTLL
T3 sequence (P43220 24-463): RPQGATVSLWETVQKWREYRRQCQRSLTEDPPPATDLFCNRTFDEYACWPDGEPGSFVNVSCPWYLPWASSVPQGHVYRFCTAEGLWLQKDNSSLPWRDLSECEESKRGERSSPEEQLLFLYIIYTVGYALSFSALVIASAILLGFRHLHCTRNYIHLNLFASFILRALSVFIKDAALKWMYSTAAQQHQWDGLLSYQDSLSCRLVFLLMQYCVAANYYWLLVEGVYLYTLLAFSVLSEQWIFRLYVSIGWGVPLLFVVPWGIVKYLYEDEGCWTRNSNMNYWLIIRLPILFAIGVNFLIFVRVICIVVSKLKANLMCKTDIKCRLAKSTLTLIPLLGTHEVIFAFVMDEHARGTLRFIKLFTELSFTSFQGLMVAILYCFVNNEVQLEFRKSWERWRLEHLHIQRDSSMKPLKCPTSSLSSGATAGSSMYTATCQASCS

Regarding “Y[Aib]EGTFTSDYSILLEEQAAREFIEWLLAGGPSK([AEEA-AEEA-γGlu-C16 diacid])GEASELSTAALGRLSAELHRLATLPRTETGSGSP-NH2 [Compound 18]”, the 50% effective concentration (EC50) in experiment [1] came to 0.0201 nM; in experiment [2], 1.3 nM; in experiment [3], 0.135 nM; in experiment [4] it was 0.0528 nM; in experiment [5] it was 0.00725 nM; in experiment [6], 0.00393 nM.

The record behind these values is patent publication US20260174875A1 (Novo Nordisk A/S, priority 2023, published 2026).
